Experimental data published in ChEMBL document CHEMBL1129711, “Nonpeptide GPIIb/IIIa inhibitors. 10. Centrally constrained alpha-sulfonamides are potent inhibitors of platelet aggregation” (Bioorg Med Chem Lett, 1996).

How the values were obtained:
Homo sapiens = species on record: Homo sapiens; experiment: In vitro inhibition of ADP-induced human platelet aggregation.; assay type: functional
[1] = biological target: T1, Integrin alpha-IIb/beta-3 (Homo sapiens, UniProt P05106+P08514); experiment: Binding affinity against alpha IIb beta-3 integrin in the presence of L-736622.; assay type: protein-complex assay
Target sequence in this assay (P05106 27-788 limits assumed): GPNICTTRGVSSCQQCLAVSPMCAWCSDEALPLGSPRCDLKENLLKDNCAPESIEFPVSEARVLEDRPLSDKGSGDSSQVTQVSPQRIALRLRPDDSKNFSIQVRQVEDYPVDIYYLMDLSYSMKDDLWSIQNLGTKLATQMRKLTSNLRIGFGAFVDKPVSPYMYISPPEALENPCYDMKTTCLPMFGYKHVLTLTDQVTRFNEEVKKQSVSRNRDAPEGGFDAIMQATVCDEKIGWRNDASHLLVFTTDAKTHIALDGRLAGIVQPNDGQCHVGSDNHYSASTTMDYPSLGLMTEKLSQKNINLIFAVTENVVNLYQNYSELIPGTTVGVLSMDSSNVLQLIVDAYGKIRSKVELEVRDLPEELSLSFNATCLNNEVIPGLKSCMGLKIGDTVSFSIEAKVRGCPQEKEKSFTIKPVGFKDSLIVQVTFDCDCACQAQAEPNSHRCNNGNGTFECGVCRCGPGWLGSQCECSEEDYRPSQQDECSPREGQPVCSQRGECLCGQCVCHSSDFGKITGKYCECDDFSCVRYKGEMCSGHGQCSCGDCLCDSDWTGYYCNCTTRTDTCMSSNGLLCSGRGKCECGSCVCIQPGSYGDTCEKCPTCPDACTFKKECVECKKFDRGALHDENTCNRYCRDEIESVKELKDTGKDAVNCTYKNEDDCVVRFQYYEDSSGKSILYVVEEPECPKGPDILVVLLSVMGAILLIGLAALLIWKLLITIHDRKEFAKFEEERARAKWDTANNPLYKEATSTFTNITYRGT
Target sequence in this assay (P08514 32-887 limits assumed): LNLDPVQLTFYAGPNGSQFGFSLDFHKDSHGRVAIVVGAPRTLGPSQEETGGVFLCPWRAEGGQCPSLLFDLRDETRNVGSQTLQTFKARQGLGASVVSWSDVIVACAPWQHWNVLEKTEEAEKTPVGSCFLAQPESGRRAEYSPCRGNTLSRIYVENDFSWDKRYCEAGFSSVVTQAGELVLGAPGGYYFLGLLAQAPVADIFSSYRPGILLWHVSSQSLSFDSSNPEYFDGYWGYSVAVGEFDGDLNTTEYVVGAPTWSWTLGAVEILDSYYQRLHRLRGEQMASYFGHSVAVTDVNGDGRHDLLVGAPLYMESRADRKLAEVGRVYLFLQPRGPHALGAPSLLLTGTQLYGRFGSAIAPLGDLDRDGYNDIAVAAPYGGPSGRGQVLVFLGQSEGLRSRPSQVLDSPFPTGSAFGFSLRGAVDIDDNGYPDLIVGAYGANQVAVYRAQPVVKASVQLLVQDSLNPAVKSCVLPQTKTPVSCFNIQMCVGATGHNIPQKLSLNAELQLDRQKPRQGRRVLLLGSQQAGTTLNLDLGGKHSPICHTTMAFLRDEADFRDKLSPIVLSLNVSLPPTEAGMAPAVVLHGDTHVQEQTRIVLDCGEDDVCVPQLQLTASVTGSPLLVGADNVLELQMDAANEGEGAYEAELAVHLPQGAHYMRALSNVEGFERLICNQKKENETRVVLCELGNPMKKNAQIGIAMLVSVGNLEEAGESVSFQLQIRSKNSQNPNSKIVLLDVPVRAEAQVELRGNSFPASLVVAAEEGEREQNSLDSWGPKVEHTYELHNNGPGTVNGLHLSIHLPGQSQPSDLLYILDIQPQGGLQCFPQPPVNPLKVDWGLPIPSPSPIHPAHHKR
Target sequence in this assay (P08514 891-1039 limits assumed): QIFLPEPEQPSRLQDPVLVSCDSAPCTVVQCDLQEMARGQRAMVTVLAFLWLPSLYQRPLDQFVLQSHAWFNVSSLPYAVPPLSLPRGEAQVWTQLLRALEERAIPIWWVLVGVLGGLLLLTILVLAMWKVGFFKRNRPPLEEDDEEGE

[2] = biological target: T1, Integrin alpha-IIb/beta-3; experiment: Binding affinity against alpha IIb beta-3 integrin by [125I]-L-692,884 displacement.; assay type: protein-complex assay

IC50 (Homo sapiens) [nM] | Kd [1] [nM] | ED50 [2] [nM] | Structure (SMILES)
9 | 7.6 | 0.88 | CCCCCS(=O)(=O)N[C@@H](CNC(=O)c1ccc2c(c1)C(=O)N(CCC1CCNCC1)C2)C(=O)O
8 | 3.7 | 0.33 | O=C(NC[C@H](NS(=O)(=O)c1ccccc1)C(=O)O)c1ccc2c(c1)C(=O)N(CCC1CCNCC1)C2
7 | 15 | 2 | O=C(O)c1ccc(S(=O)(=O)N[C@@H](CNC(=O)c2ccc3c(c2)C(=O)N(CCC2CCNCC2)C3)C(=O)O)cc1
15 | 3.6 | 0.38 | O=C(NC[C@H](NS(=O)(=O)c1cccnc1)C(=O)O)c1ccc2c(c1)C(=O)N(CCC1CCNCC1)C2
4 | 12 | 1.6 | O=C(NC[C@H](NS(=O)(=O)Cc1ccccc1)C(=O)O)c1ccc2c(c1)C(=O)N(CCC1CCNCC1)C2
7 | 7.7 | 0.53 | O=C(NC[C@H](NS(=O)(=O)c1cccs1)C(=O)O)c1ccc2c(c1)C(=O)N(CCC1CCNCC1)C2
 |  | 1.3 | CCCCS(=O)(=O)N[C@@H](CNC(=O)c1ccc2c(c1)C(=O)N(CCC1CCNCC1)C2)C(=O)O (stereo in doubt; 13) [listing 1 of 2 here]
 | 4.4 |  | CCCCS(=O)(=O)N[C@@H](CNC(=O)c1ccc2c(c1)C(=O)N(CCC1CCNCC1)C2)C(=O)O (stereo in doubt; 13) [listing 2 of 2 here]
 | 100 |  | O=C(O)CCNC(=O)c1ccc2c(c1)C(=O)N(CCC1CCNCC1)C2
15 | 6.4 | 0.83 | O=C(NC[C@H](NS(=O)(=O)c1ccccc1C(=O)O)C(=O)O)c1ccc2c(c1)C(=O)N(CCC1CCNCC1)C2
11 |  | 0.97 | CCCCS(=O)(=O)N[C@@H](Cc1ccc(OCCCCC2CCNCC2)cc1)C(=O)O [TIROFIBAN]
9 | 7.5 | 1.2 | CC(C)CS(=O)(=O)N[C@@H](CNC(=O)c1ccc2c(c1)C(=O)N(CCC1CCNCC1)C2)C(=O)O
10 | 6 | 1.2 | O=C(NCc1ccccc1)N[C@@H](CNC(=O)c1ccc2c(c1)C(=O)N(CCC1CCNCC1)C2)C(=O)O
14 | 8.8 |  | CCCCS(=O)(=O)N[C@@H](CNC(=O)c1ccc2c(c1)C(=O)N(CCC1CCNCC1)C2)C(=O)O (stereo in doubt) [listing 1 of 2 here]
14 | 7.4 | 3.4 | CS(=O)(=O)N[C@@H](CNC(=O)c1ccc2c(c1)C(=O)N(CCC1CCNCC1)C2)C(=O)O
13 | 6.4 | 4.2 | CCCCCC(=O)N[C@@H](CNC(=O)c1ccc2c(c1)C(=O)N(CCC1CCNCC1)C2)C(=O)O
19 | 21 | 2.8 | CCCCNS(=O)(=O)N[C@@H](CNC(=O)c1ccc2c(c1)C(=O)N(CCC1CCNCC1)C2)C(=O)O
8 | 5.1 | 1.1 | CCOCCS(=O)(=O)N[C@@H](CNC(=O)c1ccc2c(c1)C(=O)N(CCC1CCNCC1)C2)C(=O)O
16 | 6.9 | 1.4 | CCCCNC(=O)N[C@@H](CNC(=O)c1ccc2c(c1)C(=O)N(CCC1CCNCC1)C2)C(=O)O
 |  | 5.5 | CCCCS(=O)(=O)N[C@@H](CNC(=O)c1ccc2c(c1)C(=O)N(CCC1CCNCC1)C2)C(=O)O (stereo in doubt) [listing 2 of 2 here]
